Common to all, as to type: cell-based
The subject of assay [1] is LNCaP cells. The assay is described as follows: Antiproliferative activity on LNCaP in medium without steroids (WST-1). To be noted: 144 h, 1 nM to 100 μM. The procedure:
The anti-proliferative activity of the compounds of the present invention is determined on LNCaP in medium without steroids.
The maintenance of the LNCaP line is carried out under the usual conditions in RPMI, 10% of foetal calf serum, 2 mM of glutamine, 100 U/ml of penicillin, 0.1 mg/ml of streptomycin and 0.01M HEPES, 1 mM sodium pyruvate, 40% of D-glucose.
For the study under conditions without steroids, 24 hours before the seeding the culture medium of the cells is eliminated. The cells are washed with PBS, then incubated in the presence of RPMI medium without phenol red, 10% of foetal calf serum without steroids (treatment with carbon), 2 mM of glutamine, 100 U/ml of penicillin, 0.1 mg/ml of streptomycin and 0.01M HEPES, 1 mM of sodium pyruvate, 40% of D-glucose. • Seeding the plates:
The LNCaP line is seeded at 20,000 cells/well in 90 μl of RPMI medium with 10% foetal calf serum without steroids in 96-well plates coated with poly-D-lysine (Biocoat, Costar). • Treatment of the cells: 24 h after seeding, the cells are treated with 10 μl/well of compound diluted in the culture medium. Experiments showing the dose-effect of the compound are carried out on a scale of 1 nM to 100 μM. The concentrations used are the following: 1 nM/10/30/100/300/1000/3000/10,000/100,000 nM. Testosterone (SIGMA T1500) is used as a reference and tested at the same concentrations. The cells are incubated for 144 h at 37° C., 5% CO2. • Reading: On D6, 10 μL of cell proliferation reagent WST-1 (Roche ref 1644807) is added to each well. After incubation for 2 to 4 hours at 37° C., 5% CO2, the absorbance at 450 nm is measured by spectrophotometry (Envision, Perkin Elmer). • Results: The experiments are carried out in duplicate and the best compounds are tested twice. […] 3. Antiproliferative Activity on DU-145 in Complete Medium: […]
(In general: Tetrazolium assays rely on reduction of a dye to a coloured formazan, in cell work by metabolically active cells.)

The next assay has as its target T1, androgen receptor (Homo sapiens, UniProt P10275, T878A).
T1 construct: The LNCaP cell type (ATCC, 1740) originating from a prostate carcinoma expressing the androgen receptor; host or cells: LNCaP
T1 sequence (P10275 1-920 T878A): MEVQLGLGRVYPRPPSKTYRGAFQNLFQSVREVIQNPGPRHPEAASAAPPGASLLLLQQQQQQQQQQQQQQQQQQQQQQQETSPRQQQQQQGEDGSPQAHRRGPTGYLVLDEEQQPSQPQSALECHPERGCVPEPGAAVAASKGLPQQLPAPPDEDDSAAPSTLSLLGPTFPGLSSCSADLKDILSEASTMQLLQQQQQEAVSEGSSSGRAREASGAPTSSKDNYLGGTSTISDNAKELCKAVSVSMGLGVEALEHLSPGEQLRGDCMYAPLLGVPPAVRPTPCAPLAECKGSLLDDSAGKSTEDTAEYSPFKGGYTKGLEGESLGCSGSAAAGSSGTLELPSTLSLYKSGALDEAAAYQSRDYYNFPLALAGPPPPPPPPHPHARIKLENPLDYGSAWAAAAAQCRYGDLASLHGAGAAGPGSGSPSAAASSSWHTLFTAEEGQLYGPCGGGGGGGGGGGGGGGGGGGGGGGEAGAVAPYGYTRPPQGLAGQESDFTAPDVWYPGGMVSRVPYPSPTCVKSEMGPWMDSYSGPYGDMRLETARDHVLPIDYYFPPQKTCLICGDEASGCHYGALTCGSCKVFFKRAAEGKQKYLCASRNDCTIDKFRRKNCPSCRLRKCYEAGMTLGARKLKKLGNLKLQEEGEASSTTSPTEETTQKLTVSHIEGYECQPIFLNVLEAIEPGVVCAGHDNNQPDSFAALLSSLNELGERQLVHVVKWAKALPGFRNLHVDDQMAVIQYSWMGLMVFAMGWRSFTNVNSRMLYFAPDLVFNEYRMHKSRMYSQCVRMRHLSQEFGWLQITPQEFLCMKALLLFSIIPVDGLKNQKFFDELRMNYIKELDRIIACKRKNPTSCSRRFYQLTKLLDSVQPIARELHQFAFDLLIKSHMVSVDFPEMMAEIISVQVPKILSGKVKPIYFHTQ
Description: Measurement of the disappearance of the androgen receptor (Western blot, LNCaP cells). To be noted: 72 hours after treatment. The procedure: The cells of the LNCaP line are seeded at a rate of 2.5 millions of cells per 10 cm Petri dish in RPMI, 10% of foetal calf serum, 2 mM of glutamine, 100 U/ml of penicillin, 0.1 mg/ml of streptomycin and 0.01M HEPES, 1 mM of sodium pyruvate, 40% of D-glucose. 4 days later, the cells are treated with the compound to be tested. 72 hours after the treatment the cells are lyzed in lysis buffer (50 mM Tris pH 7.4, 150 mM NaCl, 1 mM EDTA, 20 mM NaF, 100 mM Na2VO3, 0.5% of NP40, 1% of Triton X-100, 1 mM EGTA, Pefabloc, protease inhibitor cocktail 11836170001 RocheDiagnostics, Phosphatase inhibitor cocktail set II Calbiochem). The cells are then scrapped and the lysate transferred into QIAshredder tubes (cat No. 79656 Qiagen) for centrifugation at 13,000 rpm for 15 min at 4° C. The supernatant is transferred into QIAshredder tubes for a second centrifugation at 13,000 rpm for 5 min in order to completely eliminate the DNA filaments. […] The loading buffer (sample loading buffer 3×ref 7722 Cell signaling technology) with added 1% beta-mercaptoethanol and 50 mM DTT, is added to the samples which are then heated for 10 min at 90° C. The samples are deposited under a volume of 20 μl on NuPAGE 4-12% Bis-Tris gels (cat No. NP0322BOX, Invitrogen). The migration takes place in MOPS buffer (Invitrogen) and is carried out for 1 hour at 180V. […]

The test system of the next assay is DU145 cells. Description: Antiproliferative activity on DU-145 in complete medium (WST-1). The settings on record: Homo sapiens, 144 h incubation, read-out: IC50 on the DU145 cells in culture (concentration inhibiting cell proliferation by 50%). The procedure: The anti-proliferative activity of the compounds of the present invention is determined on DU-145 in complete medium.
Maintenance of the DU-145 line is carried out in DMEM, 10% of foetal calf serum, 2 mM of glutamine, 100 U/ml of penicillin, 0.1 mg/ml of streptomycin. • Seeding the plates: • The DU145 line is seeded at 400 or 800 cells/well in 90 μl of DMEM complete medium in 96-well plates (TPP). • Treatment of the cells: 24 h after the seeding, the cells are treated with 10 μl/well of compound diluted in the culture medium. Experiments showing the dose-effect of the compound are carried out on a scale of 1 nM to 100 μM. The concentrations used are the following: 1 nM/10/30/100/300/1000/3000/10,000/100,000 nM. The cells are incubated for 144 h at 37° C., 5% CO2. • Reading: On D6, 10 μL, of cell proliferation reagent WST-1 (Roche ref 1644807) is added to each well. After incubation for 2 to 4 hours at 37° C., 5% CO2, the absorbance at 450 nm is measured by spectrophotometry (Envision, Perkin Elmer). • Results: The experiments are carried out in duplicate and the best compounds are tested twice. […] 4. Measurement of the Disappearance of the Androgen Receptor

Assay [2] relates to LNCaP cells. Description: Anti-proliferative activity on LNCaP in complete medium (WST-1). The settings on record: Homo sapiens, 144 h, 144 h incubation, read-out: IC50 on the LNCaP cells in culture (concentration inhibiting cell proliferation by 50%). The procedure: The anti-proliferative activity of the compounds of the present invention is determined on LNCaP in complete medium by applying the following experimental procedure:
The LNCaP cell type (ATCC, 1740) originating from a prostate carcinoma expressing the androgen receptor, this line is hormone-dependent.
Maintenance of the LNCaP line is carried out in complete culture medium: RPMI, 10% of foetal calf serum, 2 mM glutamine, 100 U/ml penicillin, 0.1 mg/ml of streptomycin and 0.01M HEPES, 1 mM sodium pyruvate, 40% of D-glucose. • Seeding the plates:
The LNCaP line is seeded at 20,000 cells/well in 90 μl of complete medium in 96-well plates coated with poly-D-lysine (Biocoat, Costar). • Treatment of the cells: 24 h after the seeding, the cells are treated with 10 μl/well of compound diluted in the culture medium. Experiments of the effect of doses of the compound are carried out on a scale of 1 nM to 100 µM. The concentrations used are the following: 1 nM/10/30/100/300/1000/3000/10,000/100,000 nM. Testosterone (SIGMA T1500) is used as a reference and tested at the same concentrations. The cells are incubated for 144 h at 37° C., 5% CO2. • Reading: On D6, 10 μL of the “WST-1 cell proliferation” reagent (Roche ref 1644807) is added to each well. After incubation for 2 hours at 37° C., 5% CO2, the absorbance at 450 nm is measured by spectrophotometry (Envision, Perkin Elmer). • Results: The experiments are carried out in duplicate and the best compounds are tested twice. […] 2. Antiproliferative Activity on LNCaP in Medium without Steroids: […]

Take `CN(C)CC(=O)Nc1ccc(N2C(=O)N(CCCCCCCCC[S+]([O-])CCCC(F)(F)C(F)(F)F)C(C)(C)C2=O)cc1C(F)(F)F` (stereo not drawn) [Example 43a, N-[4-(4,4-dimethyl-2,5-dioxo-3-{9-[(4,4,5,5,5-pentafluoropentyl)sulphinyl]nonyl}imidazolidin-1-yl)-2-(trifluoromethyl)phenyl]-N^2,N^2-dimethylglycinamide]: in the assay with LNCaP cells [1], the “effect on the cell proliferation of LNCaP cultured in medium without steroids (FIG. 1)” value (from here on “effect … in medium without steroids (FIG. 1)”) is “anti-proliferative activity on the LNCaP cells without an agonist effect”. The “effect on the protein expression of the androgen receptor (FIGS. 2-4)” value at androgen receptor is given as “reduction in the protein expression of the androgen receptor”.
As to `CC(=O)Nc1ccc(N2C(=O)N(CCCCCCCCC[S+]([O-])CCCC(F)(F)C(F)(F)F)C(C)(C)C2=O)cc1C(F)(F)F` (stereo not drawn) [Example 18, N-[4-(4,4-dimethyl-2,5-dioxo-3-{9-[(4,4,5,5,5-pentafluoropentyl)sulphinyl]-nonyl}imidazolidin-1-yl)-2-(trifluoromethyl)phenyl]acetamide], in the assay on LNCaP cells [1], the “effect … in medium without steroids (FIG. 1)” value was “anti-proliferative activity on the LNCaP cells without an agonist effect”. For the same compound, in the assay with DU145 cells, the IC50 is over 10 µM. Also, the “effect on the protein expression of the androgen receptor (FIGS. 2-4)” value at androgen receptor is listed as “reduction in the protein expression of the androgen receptor”.
In the case of `Cc1cc(N2C(=O)N(CCCCCCCCC[S+]([O-])CCCC(F)(F)C(F)(F)F)C(C)(C)C2=O)ccc1NS(N)(=O)=O` (stereo not drawn) [Example 31, N-[4-(4,4-dimethyl-2,5-dioxo-3-{9-[(4,4,5,5,5-pentafluoropentyl)sulphinyl]nonyl}imidazolidin-1-yl)-2-methylphenyl]sulphamide], the IC50 in the assay with LNCaP cells [2] was under 2 µM; in the assay with DU145 cells, over 10 µM.
`CC1(C)NC(=O)N(c2ccc([N+](=O)[O-])c(C(F)(F)F)c2)C1=O` [nilutamide, reference compound]: the “effect … in medium without steroids (FIG. 1)” value in the assay with LNCaP cells [1] was “biphasic profile with an agonist activity at low concentration followed by an inhibitory activity at high concentration”.
With `CC1(C)C(=O)N(c2ccc(C#N)c(C(F)(F)F)c2)C(=O)N1CCCCCCCCC[S+]([O-])CCCC(F)(F)C(F)(F)F` (stereo not drawn) [Example 20, 4-(4,4-dimethyl-2,5-dioxo-3-{9-[(4,4,5,5,5-pentafluoropentyl)sulphinyl]nonyl}imidazolidin-1-yl)-2-(trifluoromethyl)benzonitrile], the results for the IC50 in the assay with LNCaP cells [2] and with DU145 cells were under 2 µM and over 10 µM, respectively.
In the same order, the values of `CC1(C)C(=O)N(c2ccc([N+](=O)[O-])c(C(F)(F)F)c2)C(=O)N1CCCCC[S+]([O-])CCCC(F)(F)C(F)(F)F` (stereo not drawn) [Example 5, 5,5-dimethyl-3-[4-nitro-3-(trifluoromethyl)phenyl]-1-{5-[(4,4,5,5,5-pentafluoropentyl)sulphinyl]pentyl}imidazolidine-2,4-dione] are under 2 µM and over 10 µM.

The record behind these values is patent US8710091B2, “Imidazolidine-2,4-dione derivatives, and use thereof as a cancer drug” (Ipsen Pharma S.A.S., priority 2009, dated 2014).
